Source: PubChem BioAssay AID179 (DTP/NCI, 2004)
“And” between values parts separate entries of the source, which are not always exact repeats. Equal values may be shown once. The source made the active and inactive calls.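 The calls were made as follows: active = compounds giving half or more protection of infected cells from virus-caused growth loss, again on retest; inactive = the rest.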 Where a SMILES comes first, the peptide text is derived from it. The star is where a group is joined. OBn = c1ccc(CO*)cc1

Test system: CEM cells HIV-1 protection, formazan growth assay
Test: NCI AIDS Antiviral Assay
Conditions: for IC50: measured here: growth of uninfected CEM cells
Method in brief: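 Protection of CEM cells against HIV-1 was scored from cell growth (soluble formazan) across five concentrations, with parallel uninfected cells. Lack of protection may reflect toxicity.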

## CCOc1ccc(NC(=O)C(=O)CC(=O)c2c[n+](=O)c3cc(C)c(C)cc3n2[O-])cc1
  EC50: > 8.51 µM
  IC50: > 8.51 µM

## O=C1NCC(=O)c2ncn(C3OC(CO)C(O)C3O)c2N1 (configuration not stated)
  EC50: > 603 µM
  IC50: > 603 µM

## NNC(=O)C(CC(C(=O)NN)C(=O)NN)C(=O)NN
  EC50: > 912 µM
  IC50: 66.1 µM

## CC(=O)Oc1ccc2c3c4nc5ccccc5nc4cc(OC(C)=O)c3n(C)c2c1
  EC50: > 5.01 µM
  IC50: > 5.01 µM

## NS(=O)(=O)c1ccc(NC(=O)c2cccc3c(=O)c4ccccc4[nH]c23)cc1
  outcome: inactive

## CCOP(=O)(OCC)[C@]12C[C@@H](C)C=C[C@H]1COC2=O
  EC50: > 200 µM
  IC50: 135 µM

## O=C1c2c(O)cc(O)cc2OC(c2ccc(O)cc2O)C1O (configuration not stated)
  EC50: > 200 µM
  IC50: 93.3 µM

## O=C(/C=C\c1ccc(O)c(O)c1)O[C@@H]1C[C@](O)(C(=O)O)C[C@@H](O)[C@H]1O
  EC50: > 708 µM
  IC50: 97.7 µM and 355 µM

## O=c1[nH]nc(-c2ccccc2)c(-c2ccccc2)c1-n1nc(-c2ccccc2)c2ccccc2c1=O
  EC50: > 10.7 µM
  IC50: > 10.7 µM

## CCn1c(=O)c(N=O)c(N)n(CC(C)O)c1=O (configuration not stated)
  EC50: > 200 µM
  IC50: > 200 µM

## C[N+]1=C(c2ccc[nH]2)CC(C(=O)[O-])CC1 (configuration not stated)
  EC50: > 200 µM
  IC50: > 200 µM

## S=C1NC2=C(COC/C2=C\c2cccc(Cl)c2)C(c2cccc(Cl)c2)N1 (configuration not stated)
  outcome: inactive

## CC1=C(CC/C(C)=C/CCC2(C)CCC([C@H](C)C(=O)O)OO2)C(C)(C)CCC1 (some centres not stated) (tested in a mixture with another compound)
  outcome: inactive

## OCC1OC2(CCCC3CC32)O[C@H]1CO (some centres not stated)
  outcome: inactive

## O=S(=O)(/C=C/c1ccc(Cl)cc1Cl)Cc1ccccc1CS(=O)(=O)/C=C/c1ccc(Cl)cc1Cl
  EC50: > 12.6 µM
  IC50: > 12.6 µM

## c1ccc2[nH]c(SSc3nc4ccccc4[nH]3)nc2c1
  EC50: > 107 µM
  IC50: 89.1 µM

## CC1=NC(C(C)C)C(=O)O1 (configuration not stated)
  EC50: > 891 µM
  IC50: > 891 µM

## Cc1nc(N)nc(N)c1N1CCN(Cc2ccccc2)CC1
  EC50: > 200 µM
  IC50: 6.92 µM

## CC1CCCCc2nc3c(c(=O)n21)CCCC3 (configuration not stated)
  EC50: > 562 µM
  IC50: 347 µM

## O=C(OCCO)c1c(Cl)c(Cl)c(Cl)c(Cl)c1-c1c2cc(Br)c(=O)c(Br)c-2oc2c(Br)c(O)c(Br)cc12
  EC50: > 61.7 µM
  IC50: 20.9 µM

## COC1/C=C\OC2(C)Oc3c(C)c(O)c4c(O)c(cc(OCC(=O)N(C)Cc5ccccc5)c4c3C2=O)NC(=O)/C(C)=C\C=C/C(C)C(O)C(C)C(O)C(C)C(OC(C)=O)C1C (configuration not stated)
  EC50: > 200 µM
  IC50: 39.8 µM

## [Pd+2].[S-]c1ncccn1.[S-]c1ncccn1
  EC50: > 200 µM
  IC50: 0.107 µM

## Cc1ccc(-n2cc(-c3ccc(Cl)cc3)c3c2N=CN2NC(c4ccco4)=NC32)cc1 (configuration not stated)
  EC50: > 100 µM
  IC50: 74.1 µM

## Cc1cc(C)c2c(c1)sc1nncn12
  outcome: inactive

## COC(=O)[C@H](Cc1ccccc1)NP(=O)(OCCC#N)OCC1OC(n2cc(C)c(=O)[nH]c2=O)CC1N=[N+]=[N-] (some centres not stated)
  EC50: 0.513 µM
  IC50: > 200 µM

## O=[As](O)(O)c1ccc(N=Nc2ccc(O)cc2)cc1
  EC50: > 200 µM
  IC50: 138 µM

## Cc1cn(C2CC(N=[N+]=[N-])C(CO[Si](C)(C)C(C)(C)C)O2)c(=O)[nH]c1=O (configuration not stated)
  EC50: 7.08 µM
  IC50: 66.1 µM

## N#C/C(=C\c1ccc2[nH]ccc2c1)C(=O)NCCCCNC(=O)/C(C#N)=C/c1ccc2[nH]ccc2c1
  EC50: > 7.94 µM
  IC50: > 7.94 µM

## Nc1n[n+]([O-])c2cc([N+](=O)[O-])ccc2[n+]1[O-]
  EC50: > 20 µM
  IC50: 0.603 µM

## C/C(=N/OC(=O)N(C)C)c1ccccc1
  EC50: > 200 µM
  IC50: > 200 µM

## O=C1CC2CC(CC3(CO3)C2)C1F (configuration not stated)
  EC50: > 200 µM
  IC50: > 200 µM

## Cc1cc(C)nc(NS(=O)(=O)c2ccc(N=c3c4ccccc4n(Cc4ccccc4)c4ccccc34)cc2)n1
  outcome: inactive

## CO[C@H]1c2cccc3cccc(c23)[C@@H]1n1[nH]c(=O)n(C(C)(C)C)c1=O
  EC50: > 200 µM
  IC50: > 200 µM

## c1ccc(C2=NOC3(c4ccccc4)CC(c4cccs4)Sc4ccccc4N23)cc1 (configuration not stated)
  EC50: > 200 µM
  IC50: 70.8 µM

## O=C(OCc1ccccc1)N(Cc1ccccc1)S(=O)(=O)c1ccccc1
  EC50: > 200 µM
  IC50: > 200 µM

## CC(C)C1=CC2=CCC3C(C)(COC(=O)COc4ccccc4)CCCC3(C)C2CC1 (configuration not stated)
  EC50: > 200 µM
  IC50: 46.8 µM

## O=C1c2cccn2-c2ccccc2OC1c1ccc(NC(=S)Nc2ccc(Cl)cn2)cc1 (configuration not stated)
  EC50: > 200 µM
  IC50: 15.8 µM

## COC(=O)CNC(=O)CCSc1nnc(COc2ccc(Cl)cc2)n1-c1ccccc1
  EC50: > 200 µM
  IC50: 33.9 µM

## Clc1cccc2nn3ccnc3n12
  EC50: > 955 µM
  IC50: 490 µM

## CCOC(=O)c1c2ccc(/C=C/c3ccccn3)ccc-2c(C(=O)OCC)c1N
  EC50: > 6.76 µM
  IC50: > 6.76 µM

## Cc1ccc2ccccc2c1NC1=NCCO1
  EC50: > 200 µM
  IC50: 107 µM

## [N-]=[N+]=C1C(=O)C2CC3CC(C2)CC1C3
  EC50: > 191 µM
  IC50: > 191 µM

## CC(=O)[O-].CC(=O)[O-].O=C(N/N=C/c1cc(Cl)cc(Cl)c1O)c1ccncc1.[Cu+2]
  outcome: inactive

## COc1ccc(/C=C/C(=O)c2c(-c3ccccc3)nn(C)c(=O)c2N2CCCCC2)cc1
  EC50: 15.8 µM
  IC50: 19.1 µM

## O=C1/C(=C/c2ccccc2F)Cc2ccccc21
  EC50: > 21.9 µM
  IC50: > 21.9 µM

## NC1CNC(=O)c2c(Cl)sc(Cl)c21 (configuration not stated)
  EC50: > 200 µM
  IC50: > 200 µM

## COc1ccc(N/C=C/C2=[N+](C)c3ccccc3C2(C)C)c(OC)c1
  EC50: > 479 µM
  IC50: 38.9 µM

## CCCSc1nc(COC(=O)NC)c(COC(=O)NC)n1C
  EC50: > 200 µM
  IC50: 83.2 µM

## N#CC(=C1CCN(Cc2ccccc2)CC1)c1ccccc1
  EC50: > 200 µM
  IC50: 81.3 µM

## Fc1ccc(NC(=S)N/N=C\c2c(Cl)cccc2Cl)cc1
  EC50: > 275 µM
  IC50: > 275 µM

## C/C(=C\c1csc(C)n1)[C@@H]1C[C@@H]2O[C@]2(C)CCC[C@H](C)[C@H](O)[C@@H](C)C(=O)C(C)(C)[C@@H](O)CC(=O)O1 (tested in a mixture with another compound)
  EC50: > 0.02 µM
  IC50: 0.001 µM

## O=C1OC(CC(=O)c2ccc(Cl)cc2Cl)C(Cl)=C1Cl (configuration not stated)
  EC50: > 148 µM
  IC50: 53.7 µM

## CC1C[C@@H]2OC(=O)C(C)[C@H]2C[C@]2(C)C(O)CC(O)C12 (some centres not stated)
  EC50: > 933 µM
  IC50: 47.9 µM

## Oc1[nH]c2ccccc2c1N=NC(=S)N1CCCC1
  EC50: > 200 µM
  IC50: 1.55 µM

## NC(CCC(=O)OCc1ccccc1)C(=O)NC(CCC(=O)OCc1ccccc1)C(=O)O (configuration not stated) (H-Glu(OBn)-Glu(OBn)-OH; configuration not given here)
  EC50: > 1000 µM
  IC50: > 1000 µM

## OC1(c2ccc(Cl)cc2)c2ccccc2C2=NCc3ccccc3CN21 (configuration not stated)
  EC50: > 200 µM
  IC50: 33.1 µM

## COc1ccccc1C1C(Cl)C(=O)N1NC(=O)Cc1ccccc1 (configuration not stated)
  EC50: > 39.8 µM
  IC50: > 39.8 µM

## CNC(=S)N/N=C(C)\C(=N/NC(=S)NC)c1ccccc1
  EC50: > 200 µM
  IC50: 29.5 µM

## COC(=O)c1ccccc1NC(=O)C(=O)CC(=O)c1ccccc1NC1=CC(=O)C(=O)c2ccccc21
  EC50: > 27.5 µM
  IC50: 4.68 µM

## CCOC1NC(=O)NC(=O)C1(C)Cl (configuration not stated)
  EC50: > 200 µM
  IC50: > 200 µM

## COc1ccc(N2C(=O)C3c4[nH]c5ccc(F)cc5c4C4CCC(c5ccccc5)CC4C3C2=O)cc1 (configuration not stated)
  EC50: > 200 µM
  IC50: 36.3 µM

## COc1ccc(CC(CC(=O)O)NC(C)=O)cc1 (configuration not stated)
  EC50: > 1000 µM
  IC50: > 1000 µM

## N#CC(C(=O)CCC(=O)Nc1ccc(Cl)c(Cl)c1)c1ccc(Cl)cc1 (configuration not stated)
  EC50: > 331 µM
  IC50: > 331 µM

## N#CI1OC(=O)c2ccccc21
  EC50: > 200 µM
  IC50: > 100 µM

## N#C/C(=C\c1cc2ccccc2c2ccccc12)c1ccccc1
  EC50: > 12.3 µM
  IC50: 6.46 µM

## O=C(Nc1nc(=S)[nH][nH]1)C(=O)C(c1cnc2ccc([N+](=O)[O-])cc2n1)[N+](=O)[O-] (configuration not stated)
  EC50: > 447 µM
  IC50: 79.4 µM

## Cc1ccccc1S(=O)(=O)OC1NS(=O)(=O)c2ccccc21 (configuration not stated)
  EC50: > 200 µM
  IC50: > 200 µM

## COC1(c2ccccc2)Oc2ccccc2C(=O)C1(O)C[N+](=O)[O-] (configuration not stated)
  EC50: > 200 µM
  IC50: 15.5 µM

## Oc1cc(-c2ccc(Cl)cc2)cn2c1nc1ccccc12
  EC50: > 200 µM
  IC50: 9.77 µM

## COc1cc2ccnc3c2c(c1O)-c1ccccc1C3=O
  outcome: inactive

## O=C(c1ccccc1)c1ccsc1C(=O)c1ccccc1
  EC50: > 200 µM
  IC50: 36.3 µM

## CNC(=S)NNc1ncnc2c1ncn2-c1ccc(C)cc1
  EC50: > 200 µM
  IC50: 57.5 µM

## COc1ncc(/C=C2\OC(=O)c3ccccc32)c(OC)n1
  EC50: > 200 µM
  IC50: > 200 µM

## O=[N+]([O-])c1ccc(S(=O)(=O)N/N=C/c2ccco2)cc1
  EC50: > 316 µM
  IC50: 166 µM

## CC(=O)CC1CCC(=O)/C=C/C(=O)OC(CC(C)=O)CCC(=O)/C=C/C(=O)O1 (configuration not stated)
  EC50: > 200 µM
  IC50: 1.91 µM

## C=C(CO[Si](C)(C)C(C)(C)C)C(C)=O
  outcome: inactive

## Brc1cnc2nsnc2c1
  outcome: inactive

## CN(C)C(=O)C1(c2ccc(Cl)cc2)CCN(CCCC(=O)c2ccc(F)cc2)CC1
  EC50: > 79.4 µM
  IC50: 69.2 µM

## c1ccc2c(c1)cc1n2CC2CN=NC12 (configuration not stated)
  EC50: > 182 µM
  IC50: > 182 µM

## COC1=CC(=O)[C@]2(C)[C@H](C1=O)C(C)[C@H]2c1ccccc1 (some centres not stated)
  EC50: > 95.5 µM
  IC50: > 95.5 µM

## O=C(CNC(=O)OCc1ccccc1)NCCCCC(NC(=O)OCc1ccccc1)C(=O)NC(CCCCNC(=O)CNC(=O)OCc1ccccc1)C(=O)OCc1ccccc1 (configuration not stated)
  EC50: > 100 µM
  IC50: > 100 µM

## CC(C)(O)/C=C\P(C)(=O)c1ccccc1 (configuration not stated)
  EC50: > 200 µM
  IC50: > 200 µM

## Cc1ccc(Nc2nc(-c3ccc(-c4ccc([N+](=O)[O-])cc4)o3)cs2)cc1
  EC50: > 10 µM
  IC50: > 10 µM

## CCOC(=O)c1c(C(F)(F)F)c2cc(C(=O)C(F)(F)F)c3ccccc3c2n1C
  EC50: > 42.7 µM
  IC50: > 42.7 µM

## CC(Cl)c1nc2c(c(=O)[nH]1)C1CCCCCCCN1C(=S)N2C (configuration not stated)
  EC50: > 200 µM
  IC50: 12.3 µM

## c1ccc(OCC2CO2)c(OCC2CO2)c1 (configuration not stated)
  EC50: > 1120 µM
  IC50: 3.98 µM
